This is an account of results in PubChem BioAssay (NCI).

Common to all, as to assay: DTP human tumour cell line panel, 48 h
The subject of test [1] is NCI-H522 lung.
Test [2] relates to MOLT-4 leukemia.
Test [3] relates to HCC-2998 colon.
For test [4], the system named is TK-10 renal.
Test [5] has as its system MALME-3M melanoma.
Test [6] relates to CAKI-1 renal.
In test [7] the test system is NCI-H23 lung.
Test [8] concerns OVCAR-8 ovarian.
The subject of test [9] is 786-0 renal.
For test [10], the system named is HOP-92 NSCLC.

Values joined by “and” are separate entries in the source; they are usually repeats but may differ in a detail not shown here. Identical values can stand only once.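 Exposure lasted 48 hours, with cells grown in 96-well plates and compounds tested at five concentrations. GI50 is the concentration that inhibits growth by half. TGI denotes the concentration required for complete inhibition of growth.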 A value given as a limit tells only on which side of the number the result lay.

With `CC(C)=CCCC(C)c1ccc(C)c2c1OCN(CC1CCNCC1)C2` (centres undefined), the GI50 (usually the concentration that inhibits growth by half) was 13.5 µM in [1]; 14.6 µM in test [2]; 3.74 µM in test [3]; 14.4 µM in test [4]; 17.7 µM in test [5]; 17.7 µM in test [6]. The GI50 in [7] is 15.7 µM; in test [8] it was 18.4 µM; in test [9] it was 12.2 µM. In addition, the TGI (as a rule, the concentration giving total growth inhibition) in test [1] worked out at 28.6 µM; in test [2], 43.3 µM; in [3], 12.3 µM; in [4], 29.3 µM; in test [5], 35.3 µM; in test [6], 36.8 µM. For the same compound, the results for the TGI in test [7], in test [8] and in test [9] were 33.6 µM, 34.5 µM and 26.3 µM, respectively.

With `CC1C[C@@]2(c3ccccc3)C(=O)CCC[C@H]2N1` (some centres undefined), the TGI in test [1], in [2], in [4], in test [5], in [10] and in test [6] was greater than 100 µM each time. The TGI in [7], in test [8] and in [9] was greater than 100 µM throughout.

For the compound `Cc1c[nH]c2c(O)cc3c(c12)[C@H](CCl)CN3C(=O)c1cc2cc(NC(=O)Nc3ccc4[nH]c(C(=O)N5C[C@@H](CCl)c6c5cc(O)c5[nH]cc(C)c65)cc4c3)ccc2[nH]1`, the GI50 in test [1] was 4.49 nM and 8.9e-07 µg/mL; in test [6], 0.000268 µM; in test [9], 0.000203 µM. For the same compound, the TGI in test [1] was 20.2 nM and 2e-06 µg/mL; in [5], 34.2 µM and 0.0012 µg/mL; in test [10] it was > 100 µM and 0.00813 µg/mL; in [8], 16.3 µM and 2e-06 µg/mL and 0.000888 µg/mL.

As to `COc1ccc(-c2onc(-c3ccc([N+](=O)[O-])cc3)c2C2=NCCN2)cc1`, the TGI in [2], in test [3], in test [5], in test [6], in [7] and in test [8] was greater than 100 µM throughout. This compound also displayed a TGI in [9] of 43 µM.

With `O=[N+]([O-])c1cc(Cl)c(Cl)c([N+](=O)[O-])c1Cl`, the GI50 in test [2] was 0.436 µM; in [4] it was 1.53 µM; in [5] it was 0.473 µM; in test [10], 1.92 µM; in [6], 0.184 µM; in test [8], 1.34 µM. In addition, the GI50 in test [9] is 1.88 µM. The TGI turned out to be 5.42 µM in [2]; 2.99 µM in [4]; 2.18 µM in test [5]; 3.76 µM in [10]; 0.36 µM in test [6]; 2.97 µM in [8]. This compound registered a TGI in test [9] of 3.43 µM.

With `CC/C(C)=C1\CCC(CN2CCOCC2)C1=O` (centres undefined), the TGI in test [2] is greater than 100 µM; in [3] it was 39.4 µM; in test [4], 28 µM; in [5], 33 µM; in test [10], 32.4 µM; in test [6], 5.99 µM. Besides, the figures for the TGI in test [7], in test [8] and in test [9] were 30.6 µM, 50.6 µM and 22.9 µM, respectively.

On to `COc1ccccc1N1C(=O)/C(=C/c2ccc(N(CCC#N)CCC#N)cc2C)N=C1c1cc([N+](=O)[O-])ccc1Cl`, for which the TGI in test [1], in test [2], in test [3], in test [4], in [5] and in [6] was greater than 100 µM each time. For the same compound, the TGI in [7], in test [8] and in test [9] was greater than 100 µM in each case.

Turning to `CC(C)(C#N)c1cc(Cn2cncn2)cc(C(C)(C)C#N)c1`, the GI50 in test [1] was 2630 µM; in test [3] it was greater than 10000 µM; in [4] it was 564 µM; in test [10] it was 297 µM; in test [6], greater than 10000 µM; in test [7] it was greater than 10000 µM. Further, the GI50 is greater than 10000 µM in test [8] and 892 µM in [9]. Moreover, the TGI is greater than 10000 µM in test [1]; greater than 10000 µM in test [3]; greater than 10000 µM in test [4]; 2980 µM in test [10]; greater than 10000 µM in [6]; greater than 10000 µM in test [7]. The TGI in test [8] and in [9] was greater than 10000 µM throughout.

As for `O=[N+]([O-])c1cccc(C2N3CCCCC3[C@@H]3c4[nH]c5ccccc5c4CCN23)c1` (some centres undefined), the TGI in test [2] was greater than 100 µM; in [4], 35.4 µM; in test [5] it was 18.9 µM; in [10], 36.2 µM; in test [6], greater than 100 µM; in [7], 25.3 µM. In addition, the TGI in test [8] was greater than 100 µM; in test [9], 43.3 µM.

Take `CN1CCN(CCCN)CC1`: the TGI in test [1], in [2], in test [4], in test [5], in test [6] and in [7] was greater than 100 µM each time. Moreover, the TGI in test [8] and in test [9] was greater than 100 µM each time.

For `COc1cc(Cl)c2c3c(c(C(C)=O)oc13)CCC2`, the TGI in [3], in [4], in [10], in test [6], in test [7] and in [8] was greater than 100 µM in each case. For the same compound, the TGI in test [9] was greater than 100 µM.

As to `CC(=O)OCC1OC(N2C(=O)C(=O)c3cc(C)ccc32)C(OC(C)=O)C(OC(C)=O)C1OC(C)=O` (centres undefined), the TGI in test [1], in test [2], in [4], in [5], in [10] and in test [6] was greater than 100 µM each time. Further, the TGI in [7], in [8] and in test [9] was greater than 100 µM throughout.

For `COc1ccc(N2C(=O)CC(Cl)C2=O)cc1` (centres undefined), the TGI in [1] came to 36.5 µM; in [3], 50.6 µM; in test [4], 32.9 µM; in test [5] it was 32.8 µM; in test [10], 73.7 µM; in [7] it was 48.5 µM. In addition, the TGI in [8] worked out at 30.2 µM; in test [9], 32 µM.
